Results as given in patent US6306828A, “Enantiomerically-enhanced nutritional energy substrates” (Baxter International, Inc., priority 1995, dated 2001).

Assays:
isolated rat hepatocytes [1] = experiment: Bioavailability/metabolism in isolated rat hepatocytes (production of metabolic intermediates); format: cell-based, male Wistar rats; details: 20 mM; for Glucose production / Ketone Bodies production / Pyruvate-Lactate production: 37° C.
Experimental: (§1) Assay of Bioavailability and Gross Toxicity of Trilactyl Glycerate in Isolate Rat Hepatocytes
(§2) In the following experiment, male Wistar rats (200-250 g) fasted for 24 hours were used. Hepatocytes were isolated according to the method of Berry and Friend (1969) as modified by Groen et al. (1982).
(§3) The isolated hepatocytes were incubated as follows:
[…] […] The supernatant was neutralized with KOH (2 M) and Mops (0.3 M) for subsequent determination of metabolites. 0.5 ml aliquots of the cell suspension were centrifuged at 13,500 g for 15 seconds. The pellet was frozen in liquid nitrogen and stored at -80° C. to subsequently measure pyruvate kinase activity.

isolated rat hepatocytes [2] = experiment: Gross toxicity, as gauged by hepatocyte viability; format: cell-based, male Wistar rats; details: 20 mM
Experimental: as §1, §2, §3
Hepatocytes (final concentration=10 mg dry cell/ml) were incubated in closed vials at 37° C. in a shaking water bath (60 strokes/min) for 30 minutes in 2.5 ml Krebs-bicarbonate buffer (NaCl: 120 mmol/L, KCl: 4.8 mmol/L, KH2 PO4 : 1.2 mmol/L, MgSO4 : 1.2 mmol/L, NaCO3 H: 24 mmol/L, Ca^2+ :2.4 mmol/L, pH 7.4) containing Bovine Serum Albumin (BSA)-oleate (2%-2 mmol/L), trilactyl glycerate or glucose octanoate (20 mM) The gas atmosphere was O2 /CO2 (19:1). After 30 minutes, 0.35 ml samples of the cell suspension were taken and quenched with perchloric acid (HCIO4, final concentration 5% (w/v)), then centrifuged at 13,500 g for 5 minutes. The supernatant was neutralized with KOH (2 M) and Mops (0.3 M) for subsequent determination of metabolites. 0.5 ml aliquots of the cell suspension were centrifuged at 13,500 g for 15 seconds. The pellet was frozen in liquid nitrogen and stored at -80° C. to subsequently measure pyruvate kinase activity.

[3] = test system: cerebral metabolism / brain function during hypoglycemia; details: cited from earlier work
macrophage cultures = details: high lactate concentration; Jensen et al. 1986; cited from earlier work
skeletal muscle = details: Hermanson et al. 1972; cited from earlier work

For `CCCCCCCC(=O)OC1O[C@H](CO)[C@@H](O)[C@H](O)[C@H]1O` (stereo partly drawn) [glucose octanoate, α,β-D-Glucopyranosyl octanoate], the “bioavailability and metabolic conversion” value (isolated rat hepatocytes [1]) was “demonstrate the bioavailability of the substrate and its utility as a keptone precursor”.

For `CC(O)C(=O)OCC(COC(=O)C(C)O)OC(=O)C(C)O` (single isomer, unassigned) [trilactyl glycerate], the “gross toxicity, as gauged by hepatocyte viability” value (isolated rat hepatocytes [2]) was “No evidence of gross toxicity”, the Glucose production (isolated rat hepatocytes [1]; 0 Mins.) was 0.006 and the “Ketone Bodies production” value (isolated rat hepatocytes [1]; 0 Mins.) was 0.010. For the same molecule, the Pyruvate-Lactate production (isolated rat hepatocytes [1]; 0 Mins.) was 0.012, the “bioavailability and metabolic conversion” value (isolated rat hepatocytes [1]) was “demonstrate the bioavailability of trilactyl glycerate and its interconversion to glucose” and the Glucose production (isolated rat hepatocytes [1]; 15 Mins.) was 0.027. The “Ketone Bodies production” value (isolated rat hepatocytes [1]; 15 Mins.) was 0.12, the Pyruvate-Lactate production (isolated rat hepatocytes [1]; 15 Mins.) was 0.38 and the Glucose production (isolated rat hepatocytes [1]; 30 Mins.) was 0.062. For the same molecule, the “Ketone Bodies production” value (isolated rat hepatocytes [1]; 30 Mins.) was 0.15, the Pyruvate-Lactate production (isolated rat hepatocytes [1]; 30 Mins.) was 0.42 and the Glucose production (isolated rat hepatocytes [1]; 45 Mins.) was 0.178. The “Ketone Bodies production” value (isolated rat hepatocytes [1]; 45 Mins.) was 0.11, the Pyruvate-Lactate production (isolated rat hepatocytes [1]; 45 Mins.) was 0.45 and the Glucose production (isolated rat hepatocytes [1]; 60 Mins.) was 0.189. The “Ketone Bodies production” value (isolated rat hepatocytes [1]; 60 Mins.) was 0.13 and the Pyruvate-Lactate production (isolated rat hepatocytes [1]; 60 Mins.) was 0.43.

In the case of `CC(O)C(=O)O` (stereo not shown) [lactate], the “support of cerebral glucose metabolism and cognitive functions during hypoglycemia” value ([3]; Amiel 1994) is given as “able to support cerebral glucose metabolism and maintain cognitive functions during hypoglycemia”, the “protection of brain function during hypoglycemia” value ([3]; Maran et al. 1994) is given as “protective of brain function during hypoglycemia” and the “secretion of angiogenesis factors” value (macrophage cultures) is given as “encouraged macrophage cultures to secrete angiogenesis factors”. The “metabolism of blood lactate by skeletal muscle” value (skeletal muscle) was “metabolized by skeletal muscle in significant quantities”.
